{"source": "paper PMC2843925", "about": "(ACS chemical neuroscience, 2010)", "key": {"hDAT [1]": {"target": "T1, hDAT (Homo sapiens, UniProt Q01959)", "T1 sequence (Q01959 whole entry)": "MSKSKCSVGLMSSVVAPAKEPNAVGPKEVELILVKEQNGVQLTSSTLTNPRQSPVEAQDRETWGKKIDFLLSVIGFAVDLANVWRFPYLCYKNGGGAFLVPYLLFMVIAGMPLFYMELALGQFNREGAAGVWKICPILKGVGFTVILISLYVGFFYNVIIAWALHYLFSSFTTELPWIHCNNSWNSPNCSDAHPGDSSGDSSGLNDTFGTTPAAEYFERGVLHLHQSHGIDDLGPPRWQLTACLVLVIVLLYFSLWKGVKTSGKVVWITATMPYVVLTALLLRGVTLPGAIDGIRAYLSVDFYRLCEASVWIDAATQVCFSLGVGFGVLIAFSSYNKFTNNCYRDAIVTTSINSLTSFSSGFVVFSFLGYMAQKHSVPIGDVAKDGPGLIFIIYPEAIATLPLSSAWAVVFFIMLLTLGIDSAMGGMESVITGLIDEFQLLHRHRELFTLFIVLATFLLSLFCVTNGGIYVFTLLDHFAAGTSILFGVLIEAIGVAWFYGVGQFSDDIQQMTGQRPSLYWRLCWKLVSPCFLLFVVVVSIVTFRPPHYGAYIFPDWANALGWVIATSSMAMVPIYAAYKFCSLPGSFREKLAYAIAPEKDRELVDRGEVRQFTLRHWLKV", "assay": "[3H]-WIN 35,428 binding displacement in hDAT N2A cells", "conditions": "10 μM, pre- or co-incubation"}, "hDAT [2]": {"target": "T1, hDAT", "assay": "[125I]-RTI-55 binding, HEK-hDAT membranes", "conditions": "for Hill coefficient: [125I]-RTI-55 binding"}, "hSERT [3]": {"target": "T2, hSERT (Homo sapiens, UniProt P31645)", "T2 sequence (P31645 whole entry)": "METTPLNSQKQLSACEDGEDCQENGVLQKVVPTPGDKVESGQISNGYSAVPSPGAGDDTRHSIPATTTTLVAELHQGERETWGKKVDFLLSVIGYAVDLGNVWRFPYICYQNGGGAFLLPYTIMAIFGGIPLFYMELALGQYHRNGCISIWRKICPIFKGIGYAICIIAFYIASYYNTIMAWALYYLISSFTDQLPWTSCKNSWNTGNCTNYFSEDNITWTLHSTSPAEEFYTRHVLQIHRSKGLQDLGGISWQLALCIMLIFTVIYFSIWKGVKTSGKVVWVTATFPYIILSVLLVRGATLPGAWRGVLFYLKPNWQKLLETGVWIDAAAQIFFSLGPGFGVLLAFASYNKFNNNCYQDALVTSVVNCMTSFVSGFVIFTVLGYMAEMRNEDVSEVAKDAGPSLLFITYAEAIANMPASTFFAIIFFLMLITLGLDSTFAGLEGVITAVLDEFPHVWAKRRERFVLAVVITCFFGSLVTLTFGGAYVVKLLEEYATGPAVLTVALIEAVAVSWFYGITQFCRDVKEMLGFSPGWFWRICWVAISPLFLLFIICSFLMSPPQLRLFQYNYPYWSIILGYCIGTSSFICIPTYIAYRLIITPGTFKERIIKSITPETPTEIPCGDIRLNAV", "assay": "[125I]-RTI-55 binding, HEK-hSERT membranes", "conditions": "for Hill coefficient: [125I]-RTI-55 binding"}, "hNET [4]": {"target": "T3, hNET (Homo sapiens, UniProt P23975)", "T3 sequence (P23975 whole entry)": "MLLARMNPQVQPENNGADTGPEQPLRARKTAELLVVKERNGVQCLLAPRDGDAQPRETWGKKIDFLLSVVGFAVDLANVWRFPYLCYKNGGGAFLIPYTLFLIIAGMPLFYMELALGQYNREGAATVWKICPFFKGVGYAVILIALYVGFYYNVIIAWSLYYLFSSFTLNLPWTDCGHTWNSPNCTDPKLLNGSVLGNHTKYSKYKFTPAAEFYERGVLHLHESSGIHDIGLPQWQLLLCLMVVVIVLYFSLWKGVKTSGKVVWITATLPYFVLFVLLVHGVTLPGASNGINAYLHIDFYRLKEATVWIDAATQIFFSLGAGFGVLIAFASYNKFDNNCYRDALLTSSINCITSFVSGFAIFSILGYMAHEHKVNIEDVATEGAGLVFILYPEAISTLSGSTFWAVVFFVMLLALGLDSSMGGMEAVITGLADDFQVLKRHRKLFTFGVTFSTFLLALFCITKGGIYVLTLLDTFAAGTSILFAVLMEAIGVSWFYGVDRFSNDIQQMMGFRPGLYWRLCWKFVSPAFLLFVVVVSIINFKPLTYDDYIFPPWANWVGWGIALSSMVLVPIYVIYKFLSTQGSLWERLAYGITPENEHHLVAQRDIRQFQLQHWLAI", "assay_type": "binding"}, "hDAT [5]": {"target": "T1, hDAT", "assay": "[3H]-dopamine uptake inhibition, HEK-hDAT cells", "assay_type": "cell-based", "conditions": "switch to HEK cells"}, "hSERT [6]": {"target": "T2, hSERT", "assay": "[3H]-serotonin uptake inhibition, HEK-hSERT cells", "assay_type": "cell-based", "conditions": "read-out: [3H]-Serotonin uptake IC50, mean ± SEM"}, "hNET [7]": {"target": "T3, hNET", "assay_type": "cell-based"}, "[8]": {"conditions": "ref [17]; cited from earlier work"}, "hDAT [9]": {"target": "T1, hDAT", "assay": "[3H]-dopamine uptake inhibition in hDAT N2A cells"}, "DAT": {"target": "DAT", "conditions": "known DAT ligands; ref Ukairo et al. ([12]); cited from earlier work"}}, "data": [{"compound": "C[C@@H](CN1CCC(Cc2ccccc2)CC1)[C@@H](O)c1ccc(O)cc1.Cl", "note": "(relative stereo) [MI-4, [R-(R*, S*)]-α-(4-Hydroxyphenyl)-β-methyl-4-(phenylmethyl)-1-piperidinepropanol hydrochloride]", "values": [{"measurement": "Block of [3H]-WIN 35,428 binding in initial screen", "setting": "hDAT [1]", "value": "able to block [^3H]-WIN 35,428 binding in a statistically significant fashion"}, {"measurement": "DAT affinity lower than that of cocaine", "setting": "hDAT [2]; HEK-hDAT cells", "value": 20, "unit": "fold"}, {"measurement": "Hill coefficient", "setting": "hDAT [2]; HEK-hDAT cells", "value": "-0.80 ± 0.10"}, {"measurement": "Ki", "setting": "hDAT [2]; read-out: [125I]-RTI-55 binding Ki, HEK-hDAT cells, mean ± SEM", "value": "3460 ± 260", "unit": "nM"}, {"measurement": "DAT affinity increase, HEK vs N2A cells", "setting": "hDAT [2]; switch to HEK cells", "value": "~2", "unit": "fold"}, {"measurement": "Affinity at hSERT higher than at hDAT", "setting": "hSERT [3]; HEK cells", "value": 5, "unit": "fold"}, {"measurement": "Hill coefficient", "setting": "hSERT [3]; HEK-hSERT cells", "value": "-1.09 ± 0.04"}, {"measurement": "Ki", "setting": "hSERT [3]; read-out: [125I]-RTI-55 binding Ki, HEK-hSERT cells, mean ± SEM", "value": "670 ± 100", "unit": "nM"}, {"measurement": "Affinity at hNET higher than at hDAT", "setting": "hNET [4]; HEK cells", "value": 10, "unit": "fold"}, {"measurement": "Hill coefficient", "setting": "hNET [4]; HEK-hNET cells, [125I]-RTI-55 binding", "value": "-1.04 ± 0.07"}, {"measurement": "Ki", "setting": "hNET [4]; read-out: [125I]-RTI-55 binding Ki, HEK-hNET cells, mean ± SEM", "value": "365 ± 68", "unit": "nM"}, {"measurement": "DUIP increase, HEK vs N2A cells", "setting": "hDAT [5]", "value": 4, "unit": "fold"}, {"measurement": "IC50", "setting": "hSERT [6]", "value": "790 ± 170", "unit": "nM"}, {"measurement": "Substrate uptake inhibition potency at hNET greater than at hDAT", "setting": "hNET [7]; HEK cells", "value": "3 – 4 fold"}, {"measurement": "IC50", "setting": "hNET [7]; read-out: [3H]-NE uptake IC50, HEK-hNET cells, mean ± SEM", "value": "2090 ± 280", "unit": "nM"}, {"measurement": "Crosses the blood-brain barrier", "setting": "[8]", "value": "crosses the blood-brain barrier"}, {"measurement": "[3H]-dopamine uptake inhibition in screening assay", "setting": "hDAT [9]; 10 μM", "value": "did not appreciably inhibit dopamine uptake"}, {"measurement": "Shift of cocaine DUIP IC50 by MI-4", "setting": "hDAT [9]; 10 μM MI-4", "value": "approximately 3 fold"}, {"measurement": "IC50", "setting": "hDAT [9]; read-out: Dopamine uptake inhibition potency (DUIP)", "value": 28000, "unit": "nM"}]}, {"compound": "COC(=O)[C@@H]1CN(C)CC[C@@H]1c1ccc(Cl)cc1", "note": "[4-ARA-127, (1S, 3S, 4R)-4-(chlorophenyl)-3-[hydroxy(methyloxo)methyl]-1-methylpiperidin-1iium]", "values": [{"measurement": "E pKi (experimental pKi)", "setting": "DAT", "value": 5.48}]}, {"compound": "COC(=O)[C@H]1[C@@H](OC(=O)c2ccccc2)C[C@@H]2CC[C@H]1O2", "note": "[8-Oxa-norcocaine, methyl (1R,2R,3S,5S)-3-benzoyloxy-8-oxabicyclo[3.2.1]octane-2-carboxylate]", "values": [{"measurement": "E pKi (experimental pKi)", "setting": "DAT", "value": 5.81}]}, {"compound": "COC(=O)[C@H]1[C@@H](OC(=O)c2ccccc2)C[C@@H]2CC[C@H]1N2C", "note": "[Cocaine, methyl (1R,2R,3S,5S)-3-benzoyloxy-8-methyl-8-azabicyclo[3.2.1]octane-2-carboxylate, reference compound]", "values": [{"measurement": "Hill coefficient", "setting": "hDAT [2]; HEK-hDAT cells", "value": "-0.81 ± 0.03"}, {"measurement": "Hill coefficient", "setting": "hSERT [3]; HEK-hSERT cells", "value": "-1.12 ± 0.03"}]}, {"compound": "OC1(c2ccc(Cl)cc2)c2ccccc2C2=NCCN21", "note": "(stereo not shown) [Mazindol, 5-(4-chlorophenyl)-2,3-dihydroimidazo[2,1-a]isoindol-5-ol]", "values": [{"measurement": "E pKi (experimental pKi)", "setting": "DAT", "value": 7.89}]}, {"compound": "COC(=O)[C@H]1[C@@H](c2ccc(F)cc2)C[C@@H]2CC[C@H]1N2C", "note": "[WIN 35,428, methyl (1R,2S,3S,5S)-3-(4-fluorophenyl)-8-methyl-8-azabicyclo[3.2.1]octane-2-carboxylate]", "values": [{"measurement": "E pKi (experimental pKi)", "setting": "DAT", "value": 7.70}]}]}
